# Source: US20260209242A1, “CAMPTOTHECIN DERIVATIVE, PHARMACEUTICAL COMPOSITION, AND PREPARATION METHOD AND USE THEREFOR” (priority 2022, published 2026)
# Where two headings read alike, the source gives them in different places.
# Legend:
# SK-BR-3 = assay: Inhibition of proliferation of cells SK-BR-3 (CelltiterGlo, 72 h); format: cell-based; details: Homo sapiens; SK-BR-3 cells, 72 h, CTG; read-out: IC50 (nM), antiproliferative activity on SK-BR-3
# Procedure: (§1) • (1) Cell plating: first, tumor cells SK-BR-3 were cultured using a corresponding culture medium, trypsinized, centrifuged, resuspended for counting, adjusted to an appropriate concentration, and then plated on a 384-well plate. • (2) Co-incubation of the compounds and tumor cells: after the cells adhered to the wall, 100 nL of a diluted bioactive substance (test compound) was added to the cell culture plate using ECHO, the final concentration of DMSO in wells of the cell plate was 0.33%, and the incubation was performed in an incubator at 37° C. with 5% CO2 for 72 h. • (3) After the incubation was complete, 30 μL of a CTG reagent (CelltiterGlo kit) was added to each well. The culture was oscillated on a fast oscillator for 2 min, centrifuged at 1,000 rpm for 1 min, and kept away from light at room temperature for 30 min. The chemiluminescence signal value was read using an Envision instrument. • (4) Cell viability detection: IC50 was calculated using GraphPad Prism 8 software, and the IC50 of the compounds was obtained using the following nonlinear fitting formula (see Table 1):
# [formula] • Y: inhibition rate; X: log value of compound concentration-,
# (§2) [formula] • high-reading control wells: cells with addition of 100 nL DMSO; and • low-reading control wells: cell-free wells.
# CYP3A4 = target: T1, CYP3A4 (Homo sapiens, UniProt P08684); assay: Inhibition on human hepatomicrosomes CYP3A4; format: in vitro ADME
# T1 construct: from tissue; host or cells: human liver microsomes
# T1 sequence (P08684 whole entry): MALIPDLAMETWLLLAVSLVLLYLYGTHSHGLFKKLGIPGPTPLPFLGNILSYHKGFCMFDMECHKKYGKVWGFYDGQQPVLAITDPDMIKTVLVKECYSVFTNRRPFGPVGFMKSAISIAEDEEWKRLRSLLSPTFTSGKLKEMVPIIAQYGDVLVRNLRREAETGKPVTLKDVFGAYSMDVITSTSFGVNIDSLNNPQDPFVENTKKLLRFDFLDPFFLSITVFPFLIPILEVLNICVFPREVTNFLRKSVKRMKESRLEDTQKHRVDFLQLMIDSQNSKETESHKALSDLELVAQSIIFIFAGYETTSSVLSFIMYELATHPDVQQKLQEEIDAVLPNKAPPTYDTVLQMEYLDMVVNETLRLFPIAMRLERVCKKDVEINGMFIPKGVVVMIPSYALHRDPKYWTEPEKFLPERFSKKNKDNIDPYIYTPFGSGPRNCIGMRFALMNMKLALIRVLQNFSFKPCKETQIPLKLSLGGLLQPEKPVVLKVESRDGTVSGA
# [1] = Stability of compounds in human plasma; format: in vitro ADME
# Procedure: • (1) 199 μL of human plasma was added to the culture plate of each cell. The culture plate was preheated to 37° C., and kept at this temperature for 15 min. • (2) After preincubation, 1 μL of 1 mmol/L each test compound and 1 μL of 1 mmol/L control compound were added to 199 μL of plasma, so that a final concentration of each test compound was 5 μmol/L and that of the control compound was 5 gmol/L. The final concentration of the organic solvent was 0.5%. The experiment would be duplicated twice. • (3) Reaction samples were incubated at 37° C. • (4) The reaction was stopped by adding 600 μL of cold methanol containing the internal standard at 0, 1, 2, 6, and 24 h. Each sample was vortex mixed for 10 min, and then centrifuged at 3,220 g for 30 min to precipitate the protein. […] Based on the signal response and peak shapes of liquid chromatography-mass spectrometry (LC-MS), the supernatant would be diluted with ultrapure water.
# All calculations were performed using Microsoft Excel. The peak area ratio was determined from the chromatogram of extracted ions. The percentage of compounds remaining at each time point was calculated as per the following formula: […]
# NCI-N87 = assay: Inhibition of proliferation of cells NCI-N87 (CelltiterGlo, 72 h); format: cell-based; details: Homo sapiens; NCI-N87 cells, 72 h, CTG; read-out: IC50 (nM), antiproliferative activity on cells NCI-N87
# Procedure: as §1, with “NCI-N87” for “SK-BR-3”, “[…]” for “5%”, “3):” for “1):”
# [formula] • Y: inhibition rate, X: log value of compound concentration;
# as §2
# MDA-MB-468 = assay: Inhibition of proliferation of cells MDA-MB-468 (CelltiterGlo, 72 h); format: cell-based; details: Homo sapiens; MDA-MB-468 cells, 72 h, CTG; read-out: IC50 (nM), antiproliferative activity on MDA-MB-468
# Procedure: as §1, with “MDA-MB-468” for “SK-BR-3”, “[…]” for “5%”, “2):” for “1):”
# [formula] • Y: inhibition rate: X: log value of compound concentration;
# as §2
# CYP2D6 = CYP2D6 (Homo sapiens, UniProt P10635); assay: Inhibition on human hepatomicrosomes CYP2D6
# CYP2D6, sequence (P10635 whole entry): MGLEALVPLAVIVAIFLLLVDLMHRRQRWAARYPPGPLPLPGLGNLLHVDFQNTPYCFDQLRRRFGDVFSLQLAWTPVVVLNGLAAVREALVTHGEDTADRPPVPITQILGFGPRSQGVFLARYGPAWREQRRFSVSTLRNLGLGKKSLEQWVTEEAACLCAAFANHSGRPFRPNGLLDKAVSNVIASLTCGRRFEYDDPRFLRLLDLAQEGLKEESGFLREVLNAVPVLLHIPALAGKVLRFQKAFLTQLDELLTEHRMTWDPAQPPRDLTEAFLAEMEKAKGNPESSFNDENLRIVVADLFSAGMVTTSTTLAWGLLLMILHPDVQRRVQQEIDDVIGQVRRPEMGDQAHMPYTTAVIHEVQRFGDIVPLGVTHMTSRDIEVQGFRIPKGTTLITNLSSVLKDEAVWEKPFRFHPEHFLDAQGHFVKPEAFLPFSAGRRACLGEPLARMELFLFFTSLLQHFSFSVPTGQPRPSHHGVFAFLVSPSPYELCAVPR
smiles,measurement,setting,value
"CC[C@@]1(O)C(=O)OCc2c1cc1n(c2=O)Cc2c-1nc1cc(F)c(C)c3c1c2[C@@H](NC(=O)[C@@H](O)C1CC1)CCC3 [Compound 11-2, (S)-2-cyclopropyl-N-((1S,10S)-10-ethyl-6-fluoro-10-hydroxy-5-methyl-11,14-dioxo-1,2,3,4,10,11,14,16-octahydro-13H-cyclohepta[de]pyrano[3′,4′:6,7]indolizino[1,2-b]quinolin-1-yl)-2-hydroxyacetamide]",IC50,SK-BR-3,2.4 nM
same,IC50,CYP3A4,> 30 µM
same,IC50,"CYP3A4; read-out: 3A4T (IC50 μM), human hepatomicrosomes, substrate testosterone",> 30 µM
same,Residual percentage (%) 1 h,"[1]; 1 h, 5 μmol/L",96.80%
same,Residual percentage (%) 2 h,"[1]; 2 h, 5 μmol/L",92.06%
same,Residual percentage (%) 6 h,"[1]; 6 h, 5 μmol/L",94.45%
same,Residual percentage (%) 24 h,"[1]; 24 h, 5 μmol/L",88.81%
same,stability in human plasma (in words),[1]; plasma,good stability in human plasma
same,IC50,NCI-N87,2.3 nM
same,IC50,MDA-MB-468,4.5 nM
same,IC50,CYP2D6,> 30000 nM
